The source made the active and inactive calls. The calls are words filed in the database; no cut-off is given here. Where only a bound is given, the exact number is not on record here.

Series [1] has as its target T1, MAO-B (amine oxidase [flavin-containing] B) (Homo sapiens, UniProt P27338).
T1 sequence (P27338 whole entry): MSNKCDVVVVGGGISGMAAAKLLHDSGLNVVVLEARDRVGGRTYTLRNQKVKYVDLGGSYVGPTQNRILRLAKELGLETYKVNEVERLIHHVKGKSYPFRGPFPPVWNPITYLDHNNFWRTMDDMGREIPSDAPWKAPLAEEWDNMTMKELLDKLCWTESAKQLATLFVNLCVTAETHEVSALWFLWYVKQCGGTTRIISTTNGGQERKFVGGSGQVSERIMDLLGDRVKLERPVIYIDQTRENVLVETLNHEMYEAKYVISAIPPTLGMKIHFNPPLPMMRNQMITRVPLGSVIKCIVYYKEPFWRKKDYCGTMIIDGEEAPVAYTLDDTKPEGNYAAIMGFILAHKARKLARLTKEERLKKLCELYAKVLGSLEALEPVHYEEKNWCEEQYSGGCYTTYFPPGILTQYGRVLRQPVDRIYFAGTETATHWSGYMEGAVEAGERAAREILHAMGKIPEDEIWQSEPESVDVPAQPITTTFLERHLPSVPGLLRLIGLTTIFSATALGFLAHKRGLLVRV
The series can be described thus: Inhibition of human liver MAOB at 1 mM relative to MPTP.

In series [2] the target is T2, Amine oxidase [flavin-containing] B (Homo sapiens, UniProt P27338).
T2 sequence (P27338 whole entry): T1 sequence (P27338 whole entry)
The series can be described thus: Activity of human liver MAOB assessed as specific activity at 1 mM. Conditions: 1000 µM.

Series [3] in a line: Toxicity in intramuscular dosed mouse. Format: organism-based. Conditions: in vivo, im.
The species named for the next series is Rattus norvegicus. The series can be described thus: Displacement of [3H]colchicine from rat brain tubulin at 25 uM. On the technique in general: In a radioligand displacement assay an active substance lowers the binding of a labelled ligand.
For the next series, the species on record is Mus musculus. The series can be described thus: Analgesic activity in mouse by hot plate test. Format: functional, organism-based. (Hot-plate and tail-flick tests time the reaction to a heat stimulus.)

As for `CCN1CC=C(c2ccccc2)CC1`, the inhibition (in general, the drop in the measured response relative to a control, in per cent) at 1000 µM in series [1] stood at 10.4%. In series [2], the Activity was 8.82 nmol/min/mg.

Consider `C1=C(c2ccccc2)CCN(CC2CC2)C1`, for which the Activity in series [2] was under 5 nmol/min/mg.

With `COc1cc2c(c(OC)c1OC)-c1ccc(OC)c(=O)cc1[C@@H](NC(C)=O)CC2` [COLCHICINE], the LD50 (in general, the dose at which mortality reaches 50%) in series [3] came to 3 µmol/kg.

In turn, `C=CC(=O)N[C@H]1CCc2cc(OC)c(OC)c(OC)c2-c2ccc(OC)c(=O)cc21` displayed an inhibition in the series listed under Rattus norvegicus of 82%. This molecule came in with an LD50 in series [3] of 17.4 µmol/kg.

For `CN1CC[C@@]2(C)c3cc(O)ccc3N(C)[C@@H]12`, the outcome in the series filed under Mus musculus was Active.

As for `CN1CC=CC(c2ccccc2)C1` (centres undefined), the Activity in series [2] is on record as under 5 nmol/min/mg.

With `CN1CC[C@]2(C)c3cc(O)ccc3N(C)[C@H]12`, the result in the series filed under Mus musculus was inactive.

`CC(C)N1CC=C(c2ccccc2)CC1`: the Activity in series [2] was under 5 nmol/min/mg.

On to `CN1CC=C(c2ccc(Cl)cc2)CC1`, for which 1000 µM produced 6.8% inhibition in series [1]. The Activity in series [2] amounted to 5.8 nmol/min/mg.

On to `CCCCN1CC=C(c2ccccc2)CC1`, for which the Activity in series [2] is listed as under 5 nmol/min/mg.

As for `CN1CC=C(c2ccc(O)cc2)CC1`, the Activity in series [2] is under 5 nmol/min/mg.

For `CCCN1CC=C(c2ccccc2)CC1`, the Activity in series [2] is reported as under 5 nmol/min/mg.

For `C1=C(c2ccccc2)CCN(Cc2ccccc2)C1`, the Activity in series [2] is recorded as under 5 nmol/min/mg.

Molecule `CCCC(=O)N[C@H]1CCc2cc(OC)c(OC)c(OC)c2-c2ccc(OC)c(=O)cc21` displayed an inhibition in the series listed under Rattus norvegicus (tested as the 2H-labelled form) of 79%.

In the case of `CC1CN(C)CC=C1c1ccccc1` (centres undefined), in series [1], the inhibition at 1000 µM was 13.4%. Besides, the Activity in series [2] is given as 11.4 nmol/min/mg.

`CC1=C(c2ccccc2)CCN(C)C1` came in with an inhibition at 1000 µM in series [1] of 6.2%. Moreover, in series [2], the Activity turned out to be 5.3 nmol/min/mg.

Turning to `C=CCN1CC=C(c2ccccc2)CC1`, the Activity in series [2] is under 5 nmol/min/mg.

As for `CN1CCC=C(c2ccccc2)C1`, in series [2], the Activity is recorded as under 5 nmol/min/mg.

With `C/C=C/C(=O)N[C@H]1CCc2cc(OC)c(OC)c(OC)c2-c2ccc(OC)c(=O)cc21`, the inhibition in the series listed under Rattus norvegicus was 67%. In addition, the LD50 in series [3] is 3.4 µmol/kg.

Turning to `CN1CC=C(c2ccccc2)CC1`, in series [1], 1000 µM produced 100% inhibition. In addition, the Activity in series [2] was 85.2 nmol/min/mg.

As for `C1=C(c2ccccc2)CCNC1`, in series [1], the inhibition at 1000 µM was determined as 68.8%. For the same molecule, the Activity in series [2] came out at 58.6 nmol/min/mg.

For the origin of these results see ChEMBL document CHEMBL1151663, “Further explorations of unnatural alkaloids” (J Nat Prod, 1985).
